Results taken from ChEMBL document CHEMBL3991601, “The target landscape of clinical kinase drugs” (Science, 2017).
Activity calls are given as the source filed them.

How the values were obtained:
[1] = molecular target: Protein-tyrosine kinase 2-beta (Homo sapiens, UniProt Q14289)
[2] = molecular target: MAP/microtubule affinity-regulating kinase 3 (Homo sapiens, UniProt P27448)
Septin-9 = molecular target: T1, Septin-9 (Homo sapiens, UniProt Q9UHD8)
T1 sequence (Q9UHD8 whole entry): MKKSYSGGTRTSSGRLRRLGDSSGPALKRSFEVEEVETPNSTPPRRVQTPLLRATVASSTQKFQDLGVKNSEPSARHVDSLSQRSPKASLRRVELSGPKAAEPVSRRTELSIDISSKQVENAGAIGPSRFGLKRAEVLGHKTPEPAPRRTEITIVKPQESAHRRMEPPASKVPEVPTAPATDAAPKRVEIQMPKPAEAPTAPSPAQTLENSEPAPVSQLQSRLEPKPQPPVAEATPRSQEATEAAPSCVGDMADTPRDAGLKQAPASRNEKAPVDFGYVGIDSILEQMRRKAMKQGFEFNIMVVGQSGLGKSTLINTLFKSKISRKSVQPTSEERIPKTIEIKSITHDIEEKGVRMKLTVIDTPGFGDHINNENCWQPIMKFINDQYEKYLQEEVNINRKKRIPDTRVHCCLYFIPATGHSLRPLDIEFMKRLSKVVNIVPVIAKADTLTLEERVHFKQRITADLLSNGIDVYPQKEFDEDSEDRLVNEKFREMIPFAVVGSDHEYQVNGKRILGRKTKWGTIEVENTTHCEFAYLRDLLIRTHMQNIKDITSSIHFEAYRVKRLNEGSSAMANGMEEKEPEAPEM

[3] = molecular target: T2, Serine/threonine-protein kinase STK11 (Homo sapiens, UniProt Q15831)
T2 sequence (Q15831 whole entry): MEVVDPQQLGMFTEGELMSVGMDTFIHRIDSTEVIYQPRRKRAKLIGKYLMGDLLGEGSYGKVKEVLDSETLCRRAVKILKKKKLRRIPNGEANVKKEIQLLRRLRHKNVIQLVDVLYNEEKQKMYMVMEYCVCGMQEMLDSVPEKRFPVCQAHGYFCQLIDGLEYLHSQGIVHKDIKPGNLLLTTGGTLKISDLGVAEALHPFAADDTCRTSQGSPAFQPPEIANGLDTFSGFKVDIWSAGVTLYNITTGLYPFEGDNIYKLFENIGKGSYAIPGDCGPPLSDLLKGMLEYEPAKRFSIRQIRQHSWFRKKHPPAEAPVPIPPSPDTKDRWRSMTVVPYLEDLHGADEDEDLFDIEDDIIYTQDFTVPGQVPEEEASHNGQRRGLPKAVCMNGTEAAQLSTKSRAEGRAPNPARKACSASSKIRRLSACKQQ

[4] = molecular target: Mitogen-activated protein kinase 11 (Homo sapiens, UniProt Q15759)
Sequence of Mitogen-activated protein kinase 11 (Q15759 whole entry): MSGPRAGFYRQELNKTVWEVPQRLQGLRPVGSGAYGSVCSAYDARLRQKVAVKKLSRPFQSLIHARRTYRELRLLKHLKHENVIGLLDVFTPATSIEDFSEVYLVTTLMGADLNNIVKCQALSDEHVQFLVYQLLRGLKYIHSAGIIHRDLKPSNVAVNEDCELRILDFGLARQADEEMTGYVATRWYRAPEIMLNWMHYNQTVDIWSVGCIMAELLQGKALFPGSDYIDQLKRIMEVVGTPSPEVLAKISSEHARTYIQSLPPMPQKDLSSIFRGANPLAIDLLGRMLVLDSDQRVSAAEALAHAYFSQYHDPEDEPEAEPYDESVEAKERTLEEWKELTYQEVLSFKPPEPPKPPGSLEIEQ

ADP/ATP translocase 2 = molecular target: T3, ADP/ATP translocase 2 (Homo sapiens, UniProt P05141)
T3 sequence (P05141 whole entry): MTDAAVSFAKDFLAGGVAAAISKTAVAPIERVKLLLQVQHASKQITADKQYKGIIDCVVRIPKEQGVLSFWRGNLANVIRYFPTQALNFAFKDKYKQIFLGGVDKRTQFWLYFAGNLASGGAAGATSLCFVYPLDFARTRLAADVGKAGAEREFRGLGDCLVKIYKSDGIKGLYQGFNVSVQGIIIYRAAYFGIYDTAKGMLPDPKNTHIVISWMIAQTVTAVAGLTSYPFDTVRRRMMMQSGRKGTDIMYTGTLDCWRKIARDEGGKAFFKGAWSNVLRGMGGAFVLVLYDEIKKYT

[5] = molecular target: T4, Serine/threonine-protein kinase NLK (Homo sapiens, UniProt Q9UBE8)
T4 sequence (Q9UBE8 whole entry): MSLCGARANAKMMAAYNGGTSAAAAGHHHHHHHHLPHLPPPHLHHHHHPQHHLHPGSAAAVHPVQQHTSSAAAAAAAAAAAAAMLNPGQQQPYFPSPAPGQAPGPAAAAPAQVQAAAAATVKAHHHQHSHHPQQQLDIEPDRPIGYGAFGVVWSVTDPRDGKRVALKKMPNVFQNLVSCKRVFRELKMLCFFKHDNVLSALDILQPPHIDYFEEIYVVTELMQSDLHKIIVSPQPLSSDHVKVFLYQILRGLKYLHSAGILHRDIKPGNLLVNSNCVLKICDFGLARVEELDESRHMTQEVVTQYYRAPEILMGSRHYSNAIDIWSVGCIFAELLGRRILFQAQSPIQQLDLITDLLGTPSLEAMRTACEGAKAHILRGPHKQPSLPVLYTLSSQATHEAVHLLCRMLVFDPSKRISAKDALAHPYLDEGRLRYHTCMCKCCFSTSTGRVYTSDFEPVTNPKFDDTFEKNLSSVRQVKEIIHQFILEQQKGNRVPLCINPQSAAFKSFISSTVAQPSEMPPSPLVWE

[6] = molecular target: Glycogen synthase kinase-3 beta (Homo sapiens, UniProt P49841)
Sequence of Glycogen synthase kinase-3 beta (P49841 whole entry): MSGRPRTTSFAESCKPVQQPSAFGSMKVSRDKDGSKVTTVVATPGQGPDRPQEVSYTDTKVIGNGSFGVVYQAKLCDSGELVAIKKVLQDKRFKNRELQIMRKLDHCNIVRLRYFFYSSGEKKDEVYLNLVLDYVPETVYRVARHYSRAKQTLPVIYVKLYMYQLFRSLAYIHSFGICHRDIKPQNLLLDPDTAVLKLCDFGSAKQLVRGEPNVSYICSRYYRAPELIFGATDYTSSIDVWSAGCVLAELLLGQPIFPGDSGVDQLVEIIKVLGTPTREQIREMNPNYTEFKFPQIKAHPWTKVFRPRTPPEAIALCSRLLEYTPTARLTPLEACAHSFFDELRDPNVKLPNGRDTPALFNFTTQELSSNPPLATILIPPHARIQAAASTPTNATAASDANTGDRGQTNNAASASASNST

[7] = molecular target: Serine/threonine-protein kinase/endoribonuclease IRE1 (Homo sapiens, UniProt O75460)
Sequence of Serine/threonine-protein kinase/endoribonuclease IRE1 (O75460 whole entry): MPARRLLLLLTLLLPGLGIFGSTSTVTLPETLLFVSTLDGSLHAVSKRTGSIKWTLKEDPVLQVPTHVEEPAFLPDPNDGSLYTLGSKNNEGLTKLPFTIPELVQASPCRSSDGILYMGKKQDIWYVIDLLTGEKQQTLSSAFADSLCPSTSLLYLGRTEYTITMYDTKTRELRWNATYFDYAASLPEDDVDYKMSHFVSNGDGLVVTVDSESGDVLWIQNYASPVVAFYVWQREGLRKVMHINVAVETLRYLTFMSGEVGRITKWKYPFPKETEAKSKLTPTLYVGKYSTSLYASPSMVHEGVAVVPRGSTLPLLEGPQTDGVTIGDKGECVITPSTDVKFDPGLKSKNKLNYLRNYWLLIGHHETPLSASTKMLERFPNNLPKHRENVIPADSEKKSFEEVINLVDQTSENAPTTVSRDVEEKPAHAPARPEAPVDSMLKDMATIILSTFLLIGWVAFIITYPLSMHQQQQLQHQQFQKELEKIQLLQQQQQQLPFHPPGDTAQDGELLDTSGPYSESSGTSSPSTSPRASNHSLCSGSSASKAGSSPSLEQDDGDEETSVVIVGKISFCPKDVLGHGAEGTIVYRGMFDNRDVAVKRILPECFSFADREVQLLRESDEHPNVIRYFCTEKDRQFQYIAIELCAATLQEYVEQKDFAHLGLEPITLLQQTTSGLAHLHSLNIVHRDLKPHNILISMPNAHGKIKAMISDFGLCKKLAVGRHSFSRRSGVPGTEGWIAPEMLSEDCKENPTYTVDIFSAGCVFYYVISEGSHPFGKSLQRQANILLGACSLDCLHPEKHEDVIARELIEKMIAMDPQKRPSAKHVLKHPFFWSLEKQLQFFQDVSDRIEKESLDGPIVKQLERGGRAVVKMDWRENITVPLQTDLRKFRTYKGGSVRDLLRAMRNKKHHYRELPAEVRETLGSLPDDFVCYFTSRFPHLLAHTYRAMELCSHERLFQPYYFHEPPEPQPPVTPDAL
Also: in the data inactive means no Kd found up to 30 µM.

Sequence of MAP/microtubule affinity-regulating kinase 3 (P27448 whole entry): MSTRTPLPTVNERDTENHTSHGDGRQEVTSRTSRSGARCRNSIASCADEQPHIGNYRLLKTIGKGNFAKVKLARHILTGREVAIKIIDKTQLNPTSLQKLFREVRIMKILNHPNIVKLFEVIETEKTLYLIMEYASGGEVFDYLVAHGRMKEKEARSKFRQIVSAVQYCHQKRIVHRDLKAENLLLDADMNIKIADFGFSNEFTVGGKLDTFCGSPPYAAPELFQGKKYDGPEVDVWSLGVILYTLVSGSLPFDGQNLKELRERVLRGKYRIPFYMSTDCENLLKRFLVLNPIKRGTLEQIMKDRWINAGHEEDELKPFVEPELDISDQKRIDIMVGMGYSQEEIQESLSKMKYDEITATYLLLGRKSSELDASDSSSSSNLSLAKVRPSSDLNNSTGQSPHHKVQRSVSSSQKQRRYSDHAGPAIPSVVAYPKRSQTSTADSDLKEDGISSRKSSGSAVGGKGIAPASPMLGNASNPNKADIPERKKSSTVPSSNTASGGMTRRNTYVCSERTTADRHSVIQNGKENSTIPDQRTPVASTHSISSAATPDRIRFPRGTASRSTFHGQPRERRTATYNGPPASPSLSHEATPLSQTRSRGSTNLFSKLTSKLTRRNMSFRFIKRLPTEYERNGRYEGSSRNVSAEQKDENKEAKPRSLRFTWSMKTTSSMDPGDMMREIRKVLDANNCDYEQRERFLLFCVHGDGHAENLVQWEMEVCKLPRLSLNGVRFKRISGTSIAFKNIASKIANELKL
Sequence of Protein-tyrosine kinase 2-beta (Q14289 whole entry): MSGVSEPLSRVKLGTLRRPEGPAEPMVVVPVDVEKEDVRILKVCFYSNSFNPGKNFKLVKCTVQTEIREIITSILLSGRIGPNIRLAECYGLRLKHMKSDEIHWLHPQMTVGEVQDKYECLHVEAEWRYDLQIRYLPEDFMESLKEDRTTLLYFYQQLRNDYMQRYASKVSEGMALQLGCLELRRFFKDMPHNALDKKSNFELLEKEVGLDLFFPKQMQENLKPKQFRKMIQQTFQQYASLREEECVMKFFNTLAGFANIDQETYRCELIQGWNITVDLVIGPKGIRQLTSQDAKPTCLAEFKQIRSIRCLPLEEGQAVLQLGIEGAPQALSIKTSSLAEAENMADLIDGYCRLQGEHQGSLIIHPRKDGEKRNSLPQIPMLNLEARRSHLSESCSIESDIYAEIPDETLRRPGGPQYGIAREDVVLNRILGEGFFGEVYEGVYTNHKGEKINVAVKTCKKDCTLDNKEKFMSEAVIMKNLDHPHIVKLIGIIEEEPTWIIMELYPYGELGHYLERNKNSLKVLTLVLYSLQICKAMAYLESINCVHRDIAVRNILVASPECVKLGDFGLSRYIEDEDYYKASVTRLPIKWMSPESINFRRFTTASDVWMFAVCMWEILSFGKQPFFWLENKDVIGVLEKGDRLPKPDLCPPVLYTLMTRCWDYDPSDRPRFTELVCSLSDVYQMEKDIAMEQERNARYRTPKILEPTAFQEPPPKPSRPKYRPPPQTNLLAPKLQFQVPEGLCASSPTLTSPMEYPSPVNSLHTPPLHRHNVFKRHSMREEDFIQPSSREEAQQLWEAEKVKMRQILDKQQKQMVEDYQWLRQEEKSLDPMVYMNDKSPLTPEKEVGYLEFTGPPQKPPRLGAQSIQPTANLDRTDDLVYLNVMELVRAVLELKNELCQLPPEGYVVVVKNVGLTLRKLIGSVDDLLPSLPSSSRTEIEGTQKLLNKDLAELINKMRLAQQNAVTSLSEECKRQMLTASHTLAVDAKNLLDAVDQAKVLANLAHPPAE

Row | Structure (SMILES) | Kd [1] | Kd [2] | Kd (Septin-9) | Kd [3] | Kd [4] | Kd (ADP/ATP translocase 2) | Kd [5] | Kd [6] | Kd [7]
1 | CC(=O)c1cnc2ccc(-c3cc(Cl)c(O)c(Cl)c3)nc2c1N[C@H]1CC[C@H](CN(C)C)CC1 | 0.03 µM (active) | > 30 µM (inactive) | > 30 µM (inactive) | > 30 µM (inactive) | > 30 µM (inactive) | > 30 µM (inactive) | 0.024 µM (active) | – | –
2 | Cc1cc(C(=O)NOCCO)c(Nc2ccc(I)cc2F)n(C)c1=O [AZD-8330] | > 30 µM (inactive) | > 30 µM (inactive) | > 30 µM (inactive) | > 30 µM (inactive) | – | > 30 µM (inactive) | > 30 µM (inactive) | > 30 µM (inactive) | > 30 µM (inactive)
3 | COc1cc2ncnc(Oc3cccc(NC(=O)Nc4cc(C(C)(C)C(F)(F)F)on4)c3)c2cc1OC [CEP-32496] | > 30 µM (inactive) | > 30 µM (inactive) | > 30 µM (inactive) | > 30 µM (inactive) | 0.872 µM (active) | > 30 µM (inactive) | > 30 µM (inactive) | > 30 µM (inactive) | > 30 µM (inactive)
4 | Cn1cc(C2=C(c3cn(C4CCN(Cc5ccccn5)CC4)c4ccccc34)C(=O)NC2=O)c2ccccc21 [ENZASTAURIN] | – | – | > 30 µM (inactive) | – | – | > 30 µM (inactive) | – | – | –
5 | Cc1cc(Nc2ncnc3ccc(NC4=NC(C)(C)CO4)cc23)ccc1Oc1ccn2ncnc2c1 [TUCATINIB] | > 30 µM (inactive) | > 30 µM (inactive) | > 30 µM (inactive) | > 30 µM (inactive) | > 30 µM (inactive) | > 30 µM (inactive) | > 30 µM (inactive) | > 30 µM (inactive) | > 30 µM (inactive)

Continued, values first:

Row | Kd [1] | Kd [2] | Kd (Septin-9) | Kd [3] | Kd [4] | Kd (ADP/ATP translocase 2) | Kd [5] | Kd [6] | Kd [7] | Structure (SMILES)
6 | > 30 µM (inactive) | > 30 µM (inactive) | > 30 µM (inactive) | > 30 µM (inactive) | > 30 µM (inactive) | > 30 µM (inactive) | > 30 µM (inactive) | > 30 µM (inactive) | > 30 µM (inactive) | Cc1nc2cc(-n3ncc(C(=O)c4cc5ccccc5[nH]4)c3N)ccc2[nH]1 [FGFR INHIBITOR DEBIO 1347]
7 | > 30 µM (inactive) | > 30 µM (inactive) | > 30 µM (inactive) | > 30 µM (inactive) | > 30 µM (inactive) | > 30 µM (inactive) | > 30 µM (inactive) | > 30 µM (inactive) | > 30 µM (inactive) | COc1ncc(-c2ccc3nccc(-c4ccnnc4)c3c2)cc1NS(=O)(=O)c1ccc(F)cc1F [OMIPALISIB]
8 | > 30 µM (inactive) | > 30 µM (inactive) | > 30 µM (inactive) | > 30 µM (inactive) | > 30 µM (inactive) | > 30 µM (inactive) | > 30 µM (inactive) | > 30 µM (inactive) | > 30 µM (inactive) | CO[C@H]1C[C@@H]2CC[C@@H](C)[C@@](O)(O2)C(=O)C(=O)N2CCCC[C@H]2C(=O)O[C@H]([C@H](C)C[C@@H]2CC[C@@H](OP(C)(C)=O)[C@H](OC)C2)CC(=O)[C@H](C)/C=C(\C)[C@@H](O)[C@@H](OC)C(=O)[C@H](C)C[C@H](C)/C=C/C=C/C=C/1C [RIDAFOROLIMUS]
9 | – | – | > 30 µM (inactive) | – | – | > 30 µM (inactive) | – | – | – | O=C(NOCCO)c1cc(CN2OCCCC2=O)c(F)c(F)c1Nc1ccc(I)cc1F [RO-4987655]
